Read-outs that look alike come from different tables or passages of the source.
Tests used:
[1] = biological target: T1, 5-HT2A receptor (Homo sapiens, UniProt P28223); assay: cell-based; assay type: cell-based; details: for EC50: Ca^2+ flux, agonist, read-out: 5-HT2A EC50
T1 construct: host or cells: HEK293

[2] = biological target: T1, 5-HT2A receptor; assay: PathHunter beta-arrestin recruitment assay at 5-HT2A; assay type: cell-based; details: for agonist type in arrestin recruitment assay (in words): 5-HT2A beta-arrestin
Outline: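 Cells co-express PK-tagged 5-HT2A and beta-arrestin fused to a beta-galactosidase deletion mutant, so arrestin recruitment restores enzyme activity, read by chemiluminescence; cells were held at 37° C before testing. Agonist % activity = RLU over vehicle, relative to the maximal control ligand.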

[3] = biological target: D1 receptor (Homo sapiens, UniProt P21728); assay: FLIPR Ca^2+ flux agonist assay at D1; assay type: cell-based
D1 receptor, sequence (P21728 whole entry): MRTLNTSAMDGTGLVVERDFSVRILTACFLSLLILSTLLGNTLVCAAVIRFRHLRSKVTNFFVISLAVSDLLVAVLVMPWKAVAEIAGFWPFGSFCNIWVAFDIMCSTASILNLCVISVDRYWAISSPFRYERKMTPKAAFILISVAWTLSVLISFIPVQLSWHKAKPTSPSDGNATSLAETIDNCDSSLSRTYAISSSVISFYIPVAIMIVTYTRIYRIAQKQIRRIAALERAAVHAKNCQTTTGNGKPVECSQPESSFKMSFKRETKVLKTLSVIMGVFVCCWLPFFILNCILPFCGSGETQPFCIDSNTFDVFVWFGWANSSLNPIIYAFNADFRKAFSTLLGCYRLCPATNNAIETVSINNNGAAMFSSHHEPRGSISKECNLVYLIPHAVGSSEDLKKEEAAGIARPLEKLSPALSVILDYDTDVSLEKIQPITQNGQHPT
Protocol: Functional Assays at Adrenergic and Dopamine Receptors. Agonist activity at Alpha1A, Alpha2A, D1, and D2 receptors was determined using a FLIPR Ca^2+ flux assay at WuXi AppTec (Hong Kong) Limited according to their standard protocols. Briefly, stably transfected cells expressing the receptor of interest were grown and plated in a 384 well plate and incubated at 37° C. and 5% CO2 overnight. A solution of 250 mM probenecid in 1 mL FLIPR assay buffer was prepared fresh. This was combined with a fluorescent dye (Fluo-4 Direct™) to make a final assay concentration of 2.5 mM. […] The fluorescent dye was then added to the assay plate along with assay buffer to a final volume of 40 μL. The cell plate was incubated for 50 min at 37° C. and 5% CO2 and placed into the FLIPR Tetra along with the compound plate. 10 μL of references and compounds were then transferred from the compound plate into the cell plate and the fluorescent signal was read.

[4] = Metabolic stability in human liver microsomes (HLM); assay type: in vitro ADME; details: for t1/2: 1 μM, 0.50 mg protein per mL; for microsomal CLint at 1 μM: both sexes, human, pooled human liver microsomes, pH 7.4, 0.50 mg protein per mL
Text: HLM Stability. Pooled HLM from adult male and female donors (Corning 452117) were used.

[5] = Metabolic stability in mouse liver microsomes (MLM); assay type: in vitro ADME; details: 0.50 mg protein per mL; for t1/2: MLM (CD-1), 1 μM; for microsomal CLint at 1 μM: mouse, pooled mouse liver microsomes, pH 7.4, MLM (CD-1)
Text: MLM Stability Pooled MLM from CD-1 mice (BIOIVT M00501) were used.

[6] = Metabolic stability in rat liver microsomes (RLM); details: for t1/2: RLM, 0.50 mg protein per mL; for microsomal CLint at 1 μM: both, rat, pooled rat liver microsomes, pH 7.4
[7] = beta-arrestin recruitment, read-out: 5-HT2A Arrestin EC50
[8] = Ca^2+ flux, agonist, read-out: D1 EC50

T1 sequence (P28223 whole entry): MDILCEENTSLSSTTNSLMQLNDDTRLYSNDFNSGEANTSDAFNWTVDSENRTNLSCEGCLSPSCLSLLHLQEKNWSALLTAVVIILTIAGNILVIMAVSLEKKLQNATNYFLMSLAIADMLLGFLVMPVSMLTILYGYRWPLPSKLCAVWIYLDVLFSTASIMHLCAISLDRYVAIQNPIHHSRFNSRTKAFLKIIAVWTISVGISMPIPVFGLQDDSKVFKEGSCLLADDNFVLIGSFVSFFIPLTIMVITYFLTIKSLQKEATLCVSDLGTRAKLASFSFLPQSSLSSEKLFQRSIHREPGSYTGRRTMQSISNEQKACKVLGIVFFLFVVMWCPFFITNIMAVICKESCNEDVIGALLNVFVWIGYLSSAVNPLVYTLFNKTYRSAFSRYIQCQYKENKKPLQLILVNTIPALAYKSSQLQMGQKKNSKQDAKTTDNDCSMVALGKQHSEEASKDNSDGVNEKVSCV

| SMILES | EC50 [1] | EC50 [2] | agonist type in arrestin recruitment assay (in words) [2] | EC50 [3] | t1/2 [4] | microsomal CLint at 1 μM [4] | t1/2 [5] | microsomal CLint at 1 μM [5] | t1/2 [6] | microsomal CLint at 1 μM [6] | selectivity for the 5-HT2A receptor over the tested adrenergic and dopamine receptors (in words) ([1]; Ca^2+ flux functional assays) | EC50 [2, 7] | EC50 [3, 8] |
| --- | --- | --- | --- | --- | --- | --- | --- | --- | --- | --- | --- | --- | --- |
| CCCN1C[C@H](C(=O)N(CC)CC)C=C2c3cccc4[nH]cc(c34)C[C@H]21 [Compound 1, (6aR,9R)—N,N-diethyl-7-propyl-4,6,6a,7,8,9-hexahydroindolo[4,3-fg]quinoline-9-carboxamide] | 18.5 nM | 2.01 nM | full agonists | 4.64 nM | 15.1 min | 91.6 µL/min/mg | 2.3 min | 615 µL/min/mg | 16.2 min | 85.4 µL/min/mg |  |  |  |
| CCN(CC)C(=O)[C@@H]1C=C2c3cccc4[nH]cc(c34)C[C@H]2N(CCCF)C1 [Compound 2, (6aR,9R)—N,N-diethyl-7-(3-fluoropropyl)-4,6,6a,7,8,9-hexahydroindolo[4,3-fg]quinoline-9-carboxamide] | 11.1 nM | 2.27 nM | full agonists | 86.4 nM | 19.061 min | 72.7 µL/min/mg | 2.666 min | 520 µL/min/mg | 11.972 min | 116 µL/min/mg |  |  |  |
| CCCN1C[C@H](C(=O)N[C@H](C)CC)C=C2c3cccc4[nH]cc(c34)C[C@H]21 [Compound 3, (6aR,9R)—N—((R)-sec-butyl)-7-propyl-4,6,6a,7,8,9-hexahydroindolo[4,3-fg]quinoline-9-carboxamide] | 1.57 nM | < 0.509 nM | full agonists | 47.9 nM | 4.2 min | 331 µL/min/mg | 1.6 min | 894 µL/min/mg | 4.4 min | 318 µL/min/mg | exceptional selectivity |  |  |
| CCCN1C[C@H](C(=O)N2[C@@H](C)C[C@@H]2C)C=C2c3cccc4[nH]cc(c34)C[C@H]21 [Compound 4, ((2S,4S)-2,4-dimethylazetidin-1-yl)((6aR,9R)-7-propyl-4,6,6a,7,8,9-hexahydroindolo[4,3-fg]quinolin-9-yl)methanone] | 21.3 nM | 1.44 nM | full agonists | 81.8 nM | 10.6 min | 130 µL/min/mg | 0.8 min | 1670 µL/min/mg | 12.8 min | 108 µL/min/mg |  |  |  |
| CCCN1C[C@H](C(=O)NC(CC)CC)C=C2c3cccc4[nH]cc(c34)C[C@H]21 [Compound 6, (6aR,9R)—N-(pentan-3-yl)-7-propyl-4,6,6a,7,8,9-hexahydroindolo[4,3-fg]quinoline-9-carboxamide] | 11.3 nM | 1.91 nM | full agonists | 18.1 nM | 1.607 min | 862 µL/min/mg | 0.6 min | 2420 µL/min/mg | 1.655 min | 837 µL/min/mg |  |  |  |
| CCN(CC)C(=O)[C@@H]1C=C2c3cccc4[nH]cc(c34)C[C@H]2N(Cc2ccccc2OC)C1 [Compound 10, (6aR,9R)—N,N-diethyl-7-(2-methoxybenzyl)-4,6,6a,7,8,9-hexahydroindolo[4,3-fg]quinoline-9-carboxamide] | 643 nM |  | partial agonists |  | 7.3 min | 190 µL/min/mg | 1 min | 1400 µL/min/mg | 3.4 min | 407 µL/min/mg |  | 8.47 nM | 2780 nM |
| CCN(CC)C(=O)[C@@H]1C=C2c3cccc4[nH]cc(c34)C[C@H]2N(CCc2ccccc2OC)C1 [Compound 11, (6aR,9R)—N,N-diethyl-7-(2-methoxyphenethyl)-4,6,6a,7,8,9-hexahydroindolo[4,3-fg]quinoline-9-carboxamide] | 216 nM |  | partial agonists |  | 2.372 min | 584 µL/min/mg | 0.917 min | 1510 µL/min/mg | 1.159 min | 1200 µL/min/mg |  | 1.27 nM | 1590 nM |

From patent publication US20230116703A1, “NOVEL ERGOLINES AND METHODS OF TREATING MOOD DISORDERS” (priority 2021, published 2023)
